Experimental data from the pKa sets of Baltruschat and Czodrowski (2020).
“And” between values parts separate entries of the source, which are not always exact repeats. Equal entries are not always repeated.

For `Cc1cccc2nc3ccccc3c(Nc3ccc(NS(C)(=O)=O)cc3)c12`, which pKa is on record?
Its pKa is 6.43.

Which pKa does the source give for `CC(=O)Nc1ccccc1Nc1c2ccccc2nc2ccccc12` here?
Its pKa is 7.24.

Which pKa does the source give for `O=c1n(CCCN2CCN(c3cccc(Cl)c3)CC2)nc2ccccn12` here?
The pKa was 6.7 and 6.73 and 6.79.

With `Cc1ccc(N=C2NCCN2)c(C)c1` as the compound, how does the pKa read?
Its pKa is 10.6.

For `CS(=O)(=O)Nc1ccc(Nc2c3ccccc3nc3cc(N)ccc23)cc1`, which pKa is on record?
The pKa was 9.8.

For `Oc1cc(C2CCNCC2)on1`, which pKa is on record?
Its pKa is 10.3.

Which pKa does the source give for `O=C(O)c1ccc(-c2ccc(O[C@H]3O[C@H](CO)[C@@H](O)[C@H](O)[C@@H]3O)cc2)cc1` here?
The pKa was 3.88.

Which pKa does the source give for `COc1cc(NS(C)(=O)=O)ccc1Nc1c2ccccc2nc2cc(C(C)C)ccc12` here?
Its pKa is 7.66.

Which pKa does the source give for `O=C(c1ccc(Cl)cc1)c1ccc(OC2CN3CCC2CC3)cc1` (stereo not drawn) here?
Its pKa is 9.1.

With `CCCOC(=O)c1ccc(OS(N)(=O)=O)cc1` as the compound, how does the pKa read?
The pKa was 8.03.

Which pKa does the source give for `Cc1ccc(NS(=O)(=O)Cc2ccccc2)c(=O)n1CC(=O)NCc1ccc(C(=N)N)s1` here?
Its pKa is 10.3.

Which pKa does the source give for `c1ccc(-c2ncc[nH]2)nc1` here?
Its pKa is 5.36.

For `COc1cc(NS(C)(=O)=O)ccc1Nc1c2ccccc2nc2cc(F)ccc12`, which pKa is on record?
The pKa was 7.05.

With `O=C1CC2(CCCC2)CC(=O)N1CCCCN1CCN(c2ncccn2)CC1` as the compound, how does the pKa read?
Its pKa is 7.8.

Which pKa does the source give for `COc1cc(NS(C)(=O)=O)ccc1Nc1c2ccccc2nc2c(C(=O)NCC(N)=O)cccc12` here?
Its pKa is 6.18.

For `CC(=O)c1ccc(Nc2c3ccccc3nc3ccccc23)cc1`, which pKa is on record?
The pKa was 6.12.

For `O=C(NCCCNC1CCCCC1)[C@H]1C[C@@H]1c1ccccc1`, which pKa is on record?
The pKa was 10.4.

With `O=[N+]([O-])c1cc(Cl)c(N=C2NCCN2)c(Cl)c1` as the compound, how does the pKa read?
The pKa was 6.86.

With `Cc1nc(N)ncc1CNC(=O)Cn1c(C)cnc(NCCc2ccccc2)c1=O` as the compound, how does the pKa read?
Its pKa is 4.2.

For `Cc1nc(N)ncc1CNC(=O)Cn1c(C)cnc(NCC(F)(F)c2ccccc2)c1=O`, which pKa is on record?
Its pKa is 4.2.

Which pKa does the source give for `Cc1cnc(NCC(F)(F)c2ccccc2)c(=O)n1CC(=O)NCc1cnc(N)cn1` here?
Its pKa is 2.7.

Which pKa does the source give for `Cc1ccc(NS(=O)(=O)Cc2ccccc2)c(=O)n1CC(=O)NCc1ccc(C(=N)N)cc1` here?
Its pKa is 10.2.

Which pKa does the source give for `CCCC12CCC(=O)C=C1c1c(cc(OCC(=O)O)c(Cl)c1Cl)C2` (stereo not drawn) here?
Its pKa is 3.6.

With `Fc1cccc(Cl)c1N=C1NCCN1` as the compound, how does the pKa read?
The pKa was 8.01.

With `CCCOC(=O)CN(CCN(CCN(CC(=O)O)CC(=O)O)CC(=O)O)CC(=O)O` as the compound, how does the pKa read?
Its pKa is 1.8.

Which pKa does the source give for `COC(=O)c1ccccc1Nc1c2ccccc2nc2ccccc12` here?
Its pKa is 6.3.

Which pKa does the source give for `O=S(=O)(O)CCc1ccc(Nc2c3ccccc3nc3ccccc23)cc1` here?
Its pKa is 7.77.

Which pKa does the source give for `CS(=O)(=O)Nc1ccc(Nc2c3ccccc3nc3cc(Br)ccc23)cc1` here?
Its pKa is 6.56.

Which pKa does the source give for `CCCCc1nc(Cl)c(COC)n1Cc1ccc(NC(=O)c2ccccc2S(=O)(=O)O)cc1` here?
Its pKa is -6.6.

Which pKa does the source give for `Cn1ccnc1` here?
The pKa was 7.12.

With `Cc1cnc(NCCc2ccccc2)c(=O)n1CC(=O)NC[C@@H]1CNC(N)=N[C@@H]1C` as the compound, how does the pKa read?
Its pKa is 14.

Which pKa does the source give for `NC(N)=S` here?
Its pKa is 21.1.

With `CC(=O)N[C@@H](Cc1cc(F)cc(F)c1)[C@H](O)CNC1(c2cccc(C(C)(C)C)c2)CC1` as the compound, how does the pKa read?
The pKa was 6.6.

Which pKa does the source give for `CCN(C)C` here?
Its pKa is 10.2.

With `CCS(=O)(=O)c1nc(S(=O)(=O)c2ccc(Cl)cc2)c(N2CCc3ccccc3C2)s1` as the compound, how does the pKa read?
Its pKa is -8.66.

With `FC1(F)CCCNC1` as the compound, how does the pKa read?
The pKa was 7.4.

With `Brc1ncc[nH]1` as the compound, how does the pKa read?
Its pKa is 3.79.

Which pKa does the source give for `O=C(Nc1noc2ccccc12)N1CCN(Cc2cccc(Oc3ccc(Cl)cc3)c2)CC1` here?
Its pKa is -4.7.

For `Cc1ccc(C(=O)c2ccc(CC(=O)O)n2C)cc1`, which pKa is on record?
Its pKa is 3.5.

With `Clc1ncc[nH]1` as the compound, how does the pKa read?
Its pKa is 3.55.

Which pKa does the source give for `Cn1ccnc1N` here?
Its pKa is 8.54.

Which pKa does the source give for `CCCCCOC(=O)c1ccc(OS(N)(=O)=O)cc1` here?
Its pKa is 8.47.

For `CN1CC[C@H](N(C)C(=O)N2CC(c3cc(F)ccc3F)=C[C@@]2(CO)c2ccccc2)[C@@H](F)C1`, which pKa is on record?
Its pKa is 6.6.

Which pKa does the source give for `N[C@H]1C[C@@H]1c1ccccc1` here?
Its pKa is 8.5.

Which pKa does the source give for `Cc1cc(Br)cc(C)c1N=C1NCCN1` here?
Its pKa is 10.2.

For `C[C@]12CC[C@H]3[C@@H](CCC4=CC(=O)CC[C@@]43C)[C@@H]1CC[C@@H]2O`, which pKa is on record?
Its pKa is 4.48.

Which pKa does the source give for `Cc1ccc(-c2nc3ccc(C)cn3c2CC(=O)N(C)C)cc1` here?
The pKa was 6.02.

For `CC(=O)N1CCN(c2ccc(OCC3COC(Cn4ccnc4)(c4ccc(Cl)cc4Cl)O3)cc2)CC1` (stereo not drawn), which pKa is on record?
Its pKa is 5.41.

With `CC(C)Oc1ccc(-c2nc(-c3ccc4c(c3)CCN(C(CO)CO)CC4)no2)cc1C#N` as the compound, how does the pKa read?
Its pKa is 7.8.

Which pKa does the source give for `CN(C)CCCNc1ccnc2cccc([N+](=O)[O-])c12` here?
The pKa was 6.39.

Which pKa does the source give for `COCC1CC(C(=O)NC[C@H]2CCCO2)CN(Cc2nc(N3CCOCC3)oc2C)C1` (stereo partly drawn) here?
Its pKa is 7.8.

Which pKa does the source give for `O=P(O)(O)CCc1ccccc1` here?
Its pKa is 2.34.

With `COc1ccc2c3c1O[C@H]1[C@@H](O)C=C[C@H]4[C@@H](C2)N(C)CC[C@@]341` as the compound, how does the pKa read?
The pKa was 8.2.

Which pKa does the source give for `CCOC(=O)c1ccc(N)cc1` here?
The pKa was 2.5.

For `CCN(CCN(CC(=O)O)CC(=O)O)CCN(CC(=O)O)CC(=O)O`, which pKa is on record?
The pKa was 2.8.

With `CN(c1ccc(Nc2c3ccccc3nc3ccccc23)cc1)S(C)(=O)=O` as the compound, how does the pKa read?
Its pKa is 6.95.

For `CCS(=O)(=O)Nc1ccc(Nc2c3ccccc3nc3ccccc23)cc1`, which pKa is on record?
The pKa was 7.19.

For `CN1CCN2c3ncccc3Cc3ccccc3C2C1` (stereo not drawn), which pKa is on record?
The pKa was 7.3.

For `COc1cc(NS(C)(=O)=O)ccc1Nc1c2ccccc2nc2cc(I)ccc12`, which pKa is on record?
Its pKa is 6.77.

Which pKa does the source give for `COC(=O)Nc1ccccc1Nc1c2ccccc2nc2ccccc12` here?
Its pKa is 7.24.

With `Clc1cc(Cl)c(N=C2NCCN2)c(Cl)c1` as the compound, how does the pKa read?
Its pKa is 7.75.

With `CS(=O)(=O)Nc1ccc(Nc2c3ccccc3nc3cc(S(C)(=O)=O)ccc23)cc1` as the compound, how does the pKa read?
The pKa was 5.65.

For `COc1cc2nc(N3CCN(C(=O)C4CCCO4)CC3)nc(N)c2cc1OC` (stereo not drawn), which pKa is on record?
Its pKa is 7.1.

For `C/C(=N\N=C(/S)N/N=C(\S)Nc1ccc(C(F)(F)F)cc1)c1ccccn1`, which pKa is on record?
Its pKa is 6.77.

Which pKa does the source give for `Cc1nc2c3c(ccn2c1CC#N)CCC(c1ccccc1)O3` (stereo not drawn) here?
Its pKa is 6.

Which pKa does the source give for `CN1C=CC(C2NC(C(F)(F)F)=CN2c2ccc(S(N)(=O)=O)cc2)C=C1` (stereo not drawn) here?
The pKa was 7.58.

For `CNS(=O)(=O)Cc1ccc2[nH]cc(CCN(C)C)c2c1`, which pKa is on record?
The pKa was 9.5.

Which pKa does the source give for `Ic1ccccc1Nc1c2ccccc2nc2ccccc12` here?
Its pKa is 6.47.

Which pKa does the source give for `CNC(=C[N+](=O)[O-])NCCSCc1csc(CN(C)C)n1` here?
The pKa was 6.59.

For `Cc1ncc[nH]1`, which pKa is on record?
Its pKa is 7.86.

With `CCC1(CCC(C)C)C(=O)N=C(O)NC1=O` (stereo not drawn) as the compound, how does the pKa read?
Its pKa is 7.8.

Which pKa does the source give for `Cc1cccc2c(Nc3ccc(NS(C)(=O)=O)cc3)c3ccccc3nc12` here?
The pKa was 7.15.

For `COc1cc(NS(C)(=O)=O)ccc1Nc1c2ccccc2nc2cc(C)ccc12`, which pKa is on record?
The pKa was 7.7.

Which pKa does the source give for `COc1cc(NS(C)(=O)=O)ccc1Nc1c2ccccc2nc2c(OC)cccc12` here?
Its pKa is 7.39.

With `Cc1cc(Cl)cc(C)c1N=C1NCCN1` as the compound, how does the pKa read?
Its pKa is 10.2.

With `CS(=O)(=O)Nc1ccc(Nc2c3ccccc3nc3ccccc23)c(N)c1` as the compound, how does the pKa read?
The pKa was 7.65.

For `Cc1ccc(Nc2c3ccccc3nc3ccccc23)cc1`, which pKa is on record?
Its pKa is 7.72.

For `CC(C)NCC(O)COc1ccc(CCNC(=O)NC(C)C)cc1` (stereo not drawn), which pKa is on record?
The pKa was 9.18.

With `Clc1ccc(N=C2NCCN2)c(Cl)c1` as the compound, how does the pKa read?
Its pKa is 8.73.

With `CNCc1cn(S(=O)(=O)c2cccnc2)c(-c2cccnc2F)c1F` as the compound, how does the pKa read?
Its pKa is 8.54.

With `Nc1ncnc2c1ncn2[C@@H]1O[C@H](COS(=O)(=O)NC(=O)c2ccccc2)[C@@H](O)[C@H]1O` as the compound, how does the pKa read?
The pKa was 2.8.

For `COc1cc(Cl)c(N=C2NCCN2)c(Cl)c1`, which pKa is on record?
Its pKa is 8.57.

For `Cl.Fc1ccc2c(c1)N(CCCN1CCCCC1)c1cc(F)ccc1CC2`, which pKa is on record?
The pKa was 7.6.

Which pKa does the source give for `CCOC(=O)C1(c2ccccc2)CCN(C)CC1` here?
The pKa was 8.7.

With `COc1cc(NS(C)(=O)=O)ccc1Nc1c2ccccc2nc2ccc(F)cc12` as the compound, how does the pKa read?
The pKa was 6.71.

With `NC(=O)c1ccc(Nc2c3ccccc3nc3ccccc23)cc1` as the compound, how does the pKa read?
The pKa was 6.47.

For `COc1cc(NS(C)(=O)=O)ccc1Nc1c2ccccc2nc2ccc(C)cc12`, which pKa is on record?
Its pKa is 7.45.

With `O=C(c1nnc(-c2ccccc2)o1)N1CC(Oc2ccc(CN3CC4(COC4)C3)cc2)C1` as the compound, how does the pKa read?
Its pKa is 8.
